In PubChem BioAssay (NCI):
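These data come from cells grown in 96-well plates and exposed to compound for 48 hours at five concentrations. GI50 is the concentration that inhibits growth by half. The concentration for full growth arrest is given as TGI.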 Where a SMILES comes first, the peptide text is derived from it. The star is where a group is joined. Trt = c1ccc(C(c2ccccc2)(c2ccccc2)*)cc1; Cbz = O=C(OCc1ccccc1)*

What was measured:
Assay in all cases: NCI tumour cell line growth inhibition, 48 h
[1] = tested on: MDA-MB-231 breast
[2] = tested on: MALME-3M melanoma
[3] = tested on: UACC-62 melanoma
[4] = tested on: OVCAR-4 ovarian
[5] = tested on: OVCAR-8 ovarian
[6] = tested on: UACC-257 melanoma
[7] = tested on: BT-549 breast
[8] = tested on: SK-MEL-5 melanoma

| SMILES | GI50 [1] | TGI [1] | GI50 [2] | TGI [2] | GI50 [3] | TGI [3] | GI50 [4] | TGI [4] | GI50 [5] | TGI [5] | GI50 [6] | TGI [6] | GI50 [7] | TGI [7] | GI50 [8] | TGI [8] |
| --- | --- | --- | --- | --- | --- | --- | --- | --- | --- | --- | --- | --- | --- | --- | --- | --- |
| O=C1/C(=C/c2ccc(Cl)c(Cl)c2)CN(C(=O)C(Cl)Cl)C/C1=C\c1ccc(Cl)c(Cl)c1 | 0.237 µM | 1.16 µM | 0.237 µM | 0.669 µM | 0.197 µM | 0.459 µM | 0.0743 µM | 1.49 µM | 0.0505 µM | 1.51 µM | 0.666 µM | 2.24 µM | 0.228 µM | 0.701 µM | 0.196 µM | 0.418 µM |
| COc1cc(CNCCCCCCN2C(=O)c3cccc4cccc(c34)C2=O)ccc1O | 5.84 µM | 19.6 µM | 2.02 µM | 4.63 µM | 13.1 µM | 26.2 µM | 6.14 µM | 19.2 µM | 4.73 µM | 21.3 µM | 2.15 µM | 4.49 µM | 14.5 µM | 27.9 µM | 2 µM | 5.92 µM |
| CCCCN(CCCC)C(=O)[C@H](CC)[C@@H]1CC[C@@H](C)[C@@H]([C@H](C)[C@@H](O)[C@@H](C)C(=O)[C@H](CC)C2O[C@]3(C=C[C@@H](O)[C@]4(CC[C@@](C)([C@H]5CC[C@](O)(CC)[C@H](C)O5)O4)O3)[C@H](C)C[C@@H]2C)O1 (stereo partly drawn) | 1.57 µM | 3.19 µM | 1.87 µM | 4.16 µM | 1.47 µM | 3.6 µM | 2.85 µM | 36 µM | 3.43 µM | 65.4 µM | 2.9 µM | 9.71 µM | 2.73 µM | 11.3 µM | 1.73 µM | 3.15 µM |
| CCN(CC)c1ccc(/C=C/C(=O)c2ccc(Nc3nc(Nc4ccccc4)nc(Nc4ccccc4)n3)cc2)cc1 | 13.5 µM | > 100 µM | 9.52 µM | > 100 µM | 57.4 µM | > 100 µM | 32.3 µM | > 100 µM | 9.95 µM | > 100 µM | 20.4 µM | > 100 µM | 3.98 µM | 28.1 µM | 1.17 µM | 44.9 µM |
| NC(N)=N/N=C/c1c(-c2ccsc2)nc2n1CCS2 | 28.1 µM | 82.1 µM | – | – | 21.6 µM | 69.9 µM | – | – | 49 µM | > 100 µM | 20.8 µM | 53.1 µM | 33.9 µM | 78.7 µM | 20 µM | 41.4 µM |
| O=C1Nc2ccc(Cl)cc2/C1=C\c1c(-c2ccc(Cl)cc2)nc2sc(C3CC3)nn12 | 2.67 µM | 13 µM | 2.9 µM | 8.79 µM | 3.06 µM | 14.5 µM | 1.96 µM | 5.16 µM | 3.12 µM | 11.5 µM | 3.36 µM | 14.4 µM | 2.52 µM | 9.27 µM | 3.2 µM | 13 µM |
| C=C1C(=O)O[C@H]2[C@H]1CC/C(COC(=O)c1cc(OC)c(OC)c(OC)c1)=C\CC[C@@]1(C)O[C@@H]21 | 1.54 µM | 4.16 µM | 1.77 µM | 3.77 µM | 1.18 µM | 2.67 µM | 2.09 µM | 6.11 µM | 1.85 µM | 10.3 µM | 1.39 µM | 3.12 µM | 1.06 µM | 2.35 µM | 1.68 µM | 3.05 µM |
| COC(=O)C(CO)NC(=O)C(CSC(c1ccccc1)(c1ccccc1)c1ccccc1)NC(=O)OCc1ccccc1 (stereo not drawn) (Cbz-Cys(Trt)-Ser-OMe; configuration not given here) | – | 27.8 µM | – | 28.5 µM | – | 24.9 µM | – | > 50.2 µM | – | 36.5 µM | – | 25.6 µM | – | – | – | 28.4 µM |
| C[C@@]1([C@H](OC(=O)c2ccccc2)C(N)=O)CO1 | 14.9 µM | 41.8 µM | 28.3 µM | 58 µM | 14.9 µM | 29.4 µM | 37.6 µM | > 100 µM | 20.1 µM | 46.1 µM | 43.7 µM | > 100 µM | 20.8 µM | 48.5 µM | 15.1 µM | 31.3 µM |
| Cn1cc(/C=C\[N+](=O)[O-])c2ccccc21 | 23.4 µM | 78.8 µM | > 100 µM | > 100 µM | 83.6 µM | > 100 µM | – | – | 26.9 µM | 86.1 µM | 33.1 µM | > 100 µM | 34.3 µM | 78.5 µM | 14.8 µM | 31.6 µM |
| COc1cnc2c(c1)C(=O)c1c-2n(CCCNC2=NCCS2)c(=O)c2cc(F)ccc12 | 1.14 µM | 2.57 µM | 0.598 µM | 13.2 µM | 0.344 µM | 14.6 µM | 0.463 µM | 2.36 µM | 0.132 µM | 4.72 µM | 0.456 µM | 20.4 µM | 1.08 µM | 17.5 µM | 0.342 µM | 1.44 µM |
| NS(=O)(=O)c1ccc(Nc2cc(-c3ccc(O)c(F)c3)[nH]n2)cc1 | > 25 µM | > 25 µM | > 23.2 µM | > 25 µM | > 25 µM | > 25 µM | 8.8 µM | > 25 µM | 17.8 µM | > 25 µM | > 25 µM | > 25 µM | 8.66 µM | > 25 µM | 10.7 µM | > 25 µM |
| CCOC(=O)CSc1cc(Cl)c(C)cc1S(=O)(=O)/N=C(/N=C/c1ccc([N+](=O)[O-])s1)NNC | 11.7 µM | 29.7 µM | 19.9 µM | 55.3 µM | 14.1 µM | 30.8 µM | 20.7 µM | 62.4 µM | 32.7 µM | 80.2 µM | 28.7 µM | 67.2 µM | 20.5 µM | 46.3 µM | 15.2 µM | 29 µM |
| CO[C@H]1C[C@@H]2CC[C@@H](C)[C@@](O)(O2)C(=O)C(=O)N2CCCC[C@H]2C(=O)O[C@H]([C@H](C)C[C@@H]2CC[C@@H](OC(=O)C(C)(CO)CO)[C@H](OC)C2)CC(=O)[C@H](C)/C=C(\C)[C@@H](O)[C@@H](OC)C(=O)[C@H](C)C[C@H](C)\C=C/C=C/C=C/1C | > 4.32 µM | > 10 µM | 0.00766 µM | > 10 µM | 0.0087 µM | > 10 µM | < 0.001 µM | > 10 µM | – | > 10 µM | > 10 µM | > 10 µM | 0.00363 µM | > 10 µM | 1.35 µM | > 10 µM |
